Measurements taken from patent US20010053773A1, “Method for inhibiting the growth of cancers” (The Procter & Gamble Company, priority 1998, published 2001).

System: breast cancer
Test: mouse model for breast cancer, tumor mass and regrowth
Assay type: in vivo
Details: for tumor size and regrowth: followed to 180 days; for tumor regrowth / change in tumor mass on estrogen stimulation: stimulated with estrogen at day 115
Method: Carbendazim is administered to the mice at 4000, 5000, and 6000 mg/kg of body weight in a separate leg.

SMILES | tumor size and regrowth (carbendazim at 4000, 5000 and 6000 mg/kg given after 130 days to mice that had been treated with cytoxan) | dose dependence of tumor growth (carbendazim at 4000, 5000 and 6000 mg/kg of body weight) | tumor size and regrowth (carbendazim at 4000, 5000 and 6000 mg/kg of body weight in a separate leg) | tumor regrowth / change in tumor mass on estrogen stimulation | tumor regrowth (cytoxan treated control, no carbendazim)
COC(=O)Nc1nc2ccccc2[nH]1 [Carbendazim, 2-methoxycarbonylamino-benzimidazole] | The tumor continued to decrease in size and its regrowth was limited even after 180 days | dose dependent | The tumor continued to decrease in size and its regrowth was limited even after 180 days | no significant change in tumor mass | –
O=P1(N(CCCl)CCCl)NCCCO1 (stereo not drawn) [cytoxan] | – | – | – | rapid regrowth | tumor regrowth after 100 days
